Converted amounts (≈) assume the structure as drawn. Where a SMILES comes first, the peptide text is derived from it.

One series has as its system S. aureus G16 (RIF^R). The series is described as follows: microbe, parasite or virus in culture. In kind it is cell-based, Staphylococcus aureus. The settings on record: S. aureus G16 (RIF^R); for IC50: OD600 of micro-broth dilution plates, four-parameter fit; for MIC: micro-broth dilution, CLSI 2018, ~1.5 × 10^6 CFUs per mL, 37 °C, 16–18 h. On the procedure: (§1) The MICs of all drugs were determined by micro-broth dilution method according to CLSI 2018 guidelines. The bacterial suspension used in the experiment was appropriate 1.5 × 10^6 colony-forming units (CFUs) per mL and mixed with the drug solution in a sterilized 96-well microtiter plate (Corning, New York, USA), then incubated at 37 °C for 16–18 h. MIC value was defined as the minimum drug concentration without visible bacteria. Meanwhile, the density of the bacteria at 600 nm was measured, and the corresponding IC50 was calculated using log (inhibitor) vs. response variable slope (four parameters) in Graphpad Prism version 8.3.0 software (San Diego, CA, USA). To assess the role of ROS production in the antibacterial activity of WW307, increasing concentrations of N-acetylcysteine (NAC) from 0 to 5 mM were added in culture medium, followed by MICs test.
(Dilution methods test growth across graded concentrations, often in twofold steps.)

The next series has as its system MRSA T144. As to the kind of experiment: microbe, parasite or virus in culture. In kind it is cell-based, Staphylococcus aureus. The settings on record: for IC50: OD600 of micro-broth dilution plates, four-parameter fit; for MIC: micro-broth dilution, CLSI 2018, ~1.5 × 10^6 CFUs per mL, 37 °C, 16–18 h. The method, then:
as §1

Series [1] has as its system P. cibarius HNCF44W (blaNDM-1 + tet(X6)). As to the kind of experiment: MIC / IC50, micro-broth dilution. The settings on record: for IC50: OD600 of micro-broth dilution plates, four-parameter fit; for MIC: micro-broth dilution, CLSI 2018, ~1.5 × 10^6 CFUs per mL, 37 °C, 16–18 h. In kind it is cell-based. The method, then:
as §1

A further series deals with Sheep RBCs. As to the kind of experiment: Hemolysis analysis. In kind it is cell-based. The conditions noted are these: 8% sheep red blood cell suspension, 37 °C, 1 h, released hemoglobin at 576 nm; PBS negative, ddH2O positive control. On the procedure:
The hemolytic activity on all peptides was evaluated based on previous report. Briefly, fresh Sheep RBCs were washed twice with phosphate buffer (PBS), and then 8% red blood cell suspension was prepared. The increasing concentrations of AMPs and melittin were mixed with 8% red blood cell suspension, respectively, and incubated at 37 °C for 1 h. The sterilized PBS and double-distilled water (ddH2O) were used as blank and positive control, respectively. Afterwards, the supernatant was centrifuged to measure the absorption of released hemoglobin at 576 nm by an Infinite M200 Microplate reader (Tecan, Männedorf, Switzerland). The corresponding hemolysis rate was calculated.

For series [2], the system named is A. baumannii C222 (tet(X6)). As to the kind of experiment: microbe, parasite or virus in culture. The conditions noted are these: A. baumannii C222 (tet(X6)); for IC50: OD600 of micro-broth dilution plates, four-parameter fit; for MIC: micro-broth dilution, CLSI 2018, ~1.5 × 10^6 CFUs per mL, 37 °C, 16–18 h. In kind it is cell-based, Acinetobacter baumannii. The method, then: as §1

A further series has as its system E. coli G92 (mcr-1). As to the kind of experiment: microbe, parasite or virus in culture. The conditions noted are these: E. coli G92 (mcr-1); for IC50: OD600 of micro-broth dilution plates, four-parameter fit; for MIC: micro-broth dilution, CLSI 2018, ~1.5 × 10^6 CFUs per mL, 37 °C, 16–18 h. In kind it is cell-based, Escherichia coli. The method, then:
as §1

In a further series the test system is E. coli 1F28 (tet(X4)). As to the kind of experiment: microbe, parasite or virus in culture. In kind it is cell-based, Escherichia coli. The conditions noted are these: for IC50: OD600 of micro-broth dilution plates, four-parameter fit; for MIC: micro-broth dilution, CLSI 2018, ~1.5 × 10^6 CFUs per mL, 37 °C, 16–18 h. On the procedure: as §1
Series [3] has as its system E. coli B2 (mcr-1 + blaNDM-5). The series is described as follows: microbe, parasite or virus in culture. In kind it is cell-based, Escherichia coli. The settings on record: E. coli B2 (mcr-1 + blaNDM-5); for IC50: OD600 of micro-broth dilution plates, four-parameter fit; for MIC: micro-broth dilution, CLSI 2018, ~1.5 × 10^6 CFUs per mL, 37 °C, 16–18 h. On the procedure:
as §1

The next series concerns E. coli CP131 (mcr-3). As to the kind of experiment: MIC / IC50, micro-broth dilution. The settings on record: E. coli CP131 (mcr-3); for IC50: OD600 of micro-broth dilution plates, four-parameter fit; for MIC: micro-broth dilution, CLSI 2018, ~1.5 × 10^6 CFUs per mL, 37 °C, 16–18 h. In kind it is cell-based, Escherichia coli. The method, then:
as §1

Another series has as its system E. coli C3 (blaNDM-1). The series is described as follows: MIC / IC50, micro-broth dilution. In kind it is cell-based, Escherichia coli. The settings on record: for IC50: OD600 of micro-broth dilution plates, four-parameter fit; for MIC: micro-broth dilution, CLSI 2018, ~1.5 × 10^6 CFUs per mL, 37 °C, 16–18 h. The method, then: as §1
In the next series the test system is E. coli G6 (blaNDM-5). As to the kind of experiment: MIC / IC50, micro-broth dilution. In kind it is cell-based, Escherichia coli. The conditions noted are these: for IC50: OD600 of micro-broth dilution plates, four-parameter fit; for MIC: micro-broth dilution, CLSI 2018, ~1.5 × 10^6 CFUs per mL, 37 °C, 16–18 h. The method, then: as §1

For `CC[C@H](C)[C@H](NC(=O)CN)C(=O)NCC(=O)N[C@@H](C)C(=O)N[C@H](C(=O)N[C@@H](CC(C)C)C(=O)N[C@@H](CCCCN)C(=O)N[C@H](C(=O)N[C@@H](CC(C)C)C(=O)N[C@H](C(=O)N[C@H](C(=O)NCC(=O)N[C@@H](CC(C)C)C(=O)N1CCC[C@H]1C(=O)N[C@@H](C)C(=O)N[C@@H](CC(C)C)C(=O)N[C@H](C(=O)N[C@@H](CO)C(=O)N[C@@H](Cc1c[nH]c2ccccc12)C(=O)N[C@H](C(=O)N[C@@H](CCCCN)C(=O)N[C@@H](CCCNC(=N)N)C(=O)N[C@@H](CCCCN)C(=O)N[C@@H](CCCNC(=N)N)C(=O)N[C@@H](CCC(N)=O)C(=O)N[C@@H](CCC(N)=O)C(N)=O)[C@@H](C)CC)[C@@H](C)CC)[C@@H](C)O)[C@@H](C)O)C(C)C)C(C)C` [Melittin, melittin], the concentration for half-maximal inhibition (IC50) – broadly, the midpoint of a concentration-inhibition curve – in the series on S. aureus G16 (RIF^R) is 1.19 µg/mL (≈ 0.418 µM); in the series on MRSA T144, 3.54 µg/mL (≈ 1.24 µM); in [1] it was 2.39 µg/mL (≈ 0.84 µM); in [2], 4.16 µg/mL (≈ 1.46 µM); with E. coli G92 (mcr-1) it was 3.55 µg/mL (≈ 1.25 µM); in the series on E. coli 1F28 (tet(X4)), 2.62 µg/mL (≈ 0.92 µM). The IC50 in [3] turned out to be 4.36 µg/mL; with E. coli CP131 (mcr-3), 3.39 µg/mL (≈ 1.19 µM); with E. coli C3 (blaNDM-1), 5.03 µg/mL (≈ 1.77 µM); in the series with E. coli G6 (blaNDM-5) it was 2.38 µg/mL (≈ 0.836 µM). For the same compound, the MIC in the series on S. aureus G16 (RIF^R) worked out at 2 µg/mL (≈ 0.703 µM); in the series with MRSA T144, 4 µg/mL (≈ 1.41 µM); in [1] it was 4 µg/mL (≈ 1.41 µM); in [2], 8 µg/mL (≈ 2.81 µM); with E. coli G92 (mcr-1), 4 µg/mL (≈ 1.41 µM); with E. coli 1F28 (tet(X4)), 4 µg/mL (≈ 1.41 µM). Moreover, the MIC in [3] is 8 µg/mL; against E. coli CP131 (mcr-3), 4 µg/mL (≈ 1.41 µM); against E. coli C3 (blaNDM-1), 8 µg/mL (≈ 2.81 µM); against E. coli G6 (blaNDM-5), 4 µg/mL (≈ 1.41 µM). The “HL50 (peptide concentration that causes 50% hemolysis)” value with Sheep RBCs is on record as 14.39 µg/mL.

On to `CC(C)C[C@H](NC(=O)[C@H](Cc1c[nH]c2ccccc12)NC(=O)[C@H](Cc1c[nH]c2ccccc12)NC(=O)[C@@H](N)Cc1c[nH]c2ccccc12)C(=O)N[C@@H](CCCNC(=N)N)C(=O)N[C@@H](CCCNC(=N)N)C(=O)N[C@@H](CCCNC(=N)N)C(=O)N[C@@H](Cc1c[nH]c2ccccc12)C(N)=O` [WW304] (H-WWWLRRRW-NH2), for which the IC50 in the series on S. aureus G16 (RIF^R) stood at 2.11 µg/mL (≈ 1.57 µM); in the series on MRSA T144 it was 4.59 µg/mL (≈ 3.42 µM); in [1] it was 33.60 µg/mL (≈ 25 µM); in series [2], 34.74 µg/mL (≈ 25.9 µM); in the series with E. coli G92 (mcr-1), 31.96 µg/mL (≈ 23.8 µM); in the series on E. coli 1F28 (tet(X4)) it was 18.13 µg/mL (≈ 13.5 µM). Besides, the half-maximal inhibitory concentration (IC50) in series [3] came out at 36.12 µg/mL; in the series with E. coli CP131 (mcr-3), 18.26 µg/mL (≈ 13.6 µM); with E. coli C3 (blaNDM-1), 34.76 µg/mL (≈ 25.9 µM); with E. coli G6 (blaNDM-5), 36.04 µg/mL (≈ 26.8 µM). Further, the MIC was 8 µg/mL (≈ 5.95 µM) against S. aureus G16 (RIF^R); 8 µg/mL (≈ 5.95 µM) against MRSA T144; 64 µg/mL (≈ 47.6 µM) in series [1]; 64 µg/mL (≈ 47.6 µM) in series [2]; 64 µg/mL (≈ 47.6 µM) with E. coli G92 (mcr-1); 32 µg/mL (≈ 23.8 µM) against E. coli 1F28 (tet(X4)). Further, the MIC was 64 µg/mL in [3], 32 µg/mL (≈ 23.8 µM) against E. coli CP131 (mcr-3), 64 µg/mL (≈ 47.6 µM) with E. coli C3 (blaNDM-1) and 64 µg/mL (≈ 47.6 µM) with E. coli G6 (blaNDM-5). Further, the “HL50 (peptide concentration that causes 50% hemolysis)” value in the series on Sheep RBCs is listed as greater than 128 µg/mL.

Source of the values: article PMC8063935, “Amphipathic Peptide Antibiotics with Potent Activity against Multidrug-Resistant Pathogens” (Pharmaceutics, 2021).
